The values below are quoted from earlier work in patent publication US20220331289A1, “Pharmaceutical Composition Comprising an Artemisinin Derivative for Nasal or Pulmonary Delivery” (Cipla Limited, priority 2014, published 2022).

The structures appear in SMILES notation.

For the series the following is noted: oil-based intramuscular injection formulation.

Regarding `CO[C@H]1O[C@@H]2O[C@@]3(C)CC[C@H]4[C@H](C)CC[C@@H]([C@H]1C)[C@@]24OO3` [artemether], the absorption result is “slowly and erratically absorbed”.
